From the NIST ThermoML archive (doi:10.1016/j.fluid.2004.09.013)
Numbers after ± are expanded uncertainties.

Details: for mass density: Fluid (supercritical or subcritical phases), Vibrating tube method; for vapor or sublimation pressure: Liquid

C=CCC [1-butene]
Details	mass density [kg/m3]
388.24 K, 35013 kPa	554.66 ± 1.3
388.24 K, 40001 kPa	562.62 ± 1.4
393.24 K, 3099 kPa	433.35 ± 0.92
393.24 K, 4988 kPa	452.98 ± 0.96
393.24 K, 10001 kPa	483.54 ± 1
393.24 K, 14990 kPa	503.16 ± 1.1
393.24 K, 20005 kPa	518.2 ± 1.2
393.24 K, 24996 kPa	530.47 ± 1.2
393.24 K, 30000 kPa	540.98 ± 1.3
393.24 K, 35004 kPa	550.18 ± 1.3
393.24 K, 39996 kPa	558.42 ± 1.4
398.24 K, 3328 kPa	420.6 ± 0.9
398.24 K, 4984 kPa	441.24 ± 0.94
398.24 K, 9995 kPa	475.63 ± 1
398.24 K, 14988 kPa	496.67 ± 1.1
398.24 K, 20004 kPa	512.53 ± 1.2
398.24 K, 24995 kPa	525.32 ± 1.2
398.24 K, 29999 kPa	536.22 ± 1.3
398.24 K, 34991 kPa	545.71 ± 1.3
398.24 K, 40002 kPa	554.2 ± 1.4
403.24 K, 3570 kPa	406.72 ± 0.89
403.24 K, 4981 kPa	428.43 ± 0.92
403.24 K, 9984 kPa	467.46 ± 1
403.24 K, 14984 kPa	490.08 ± 1.1
403.24 K, 19994 kPa	506.77 ± 1.2
403.24 K, 24991 kPa	520.14 ± 1.2
403.24 K, 29990 kPa	531.44 ± 1.3
403.24 K, 34986 kPa	541.24 ± 1.3
403.24 K, 40010 kPa	549.99 ± 1.4
408.24 K, 3826 kPa	391.44 ± 0.88
408.24 K, 4981 kPa	414.13 ± 0.91
408.24 K, 9995 kPa	459.14 ± 0.99
408.24 K, 14983 kPa	483.4 ± 1.1
408.24 K, 19998 kPa	501 ± 1.1
408.24 K, 24993 kPa	514.95 ± 1.2
408.24 K, 29994 kPa	526.66 ± 1.3
408.24 K, 34991 kPa	536.79 ± 1.3
408.24 K, 40009 kPa	545.77 ± 1.4
413.24 K, 4097 kPa	374.62 ± 0.89
413.24 K, 4986 kPa	397.78 ± 0.91
413.24 K, 9991 kPa	450.43 ± 0.98
413.24 K, 14983 kPa	476.61 ± 1.1
413.24 K, 20002 kPa	495.19 ± 1.1
413.24 K, 24998 kPa	509.75 ± 1.2
413.24 K, 30000 kPa	521.88 ± 1.3
413.24 K, 34989 kPa	532.32 ± 1.3
413.24 K, 40005 kPa	541.58 ± 1.4
418.24 K, 4381 kPa	356.12 ± 1.1
418.24 K, 4990 kPa	378.2 ± 0.93
418.24 K, 9997 kPa	441.54 ± 0.96
418.24 K, 14996 kPa	469.76 ± 1.1
418.24 K, 20000 kPa	489.3 ± 1.1
418.24 K, 24996 kPa	504.48 ± 1.2
418.24 K, 29999 kPa	517.07 ± 1.3
418.24 K, 34991 kPa	527.85 ± 1.3
418.24 K, 40005 kPa	537.36 ± 1.4
423.24 K, 5017 kPa	354.2 ± 0.85
423.24 K, 9991 kPa	431.88 ± 0.94
423.24 K, 14996 kPa	462.7 ± 1
423.24 K, 20000 kPa	483.36 ± 1.1
423.24 K, 24995 kPa	499.21 ± 1.2
423.24 K, 29997 kPa	512.25 ± 1.3
423.24 K, 34989 kPa	523.35 ± 1.3
423.24 K, 39991 kPa	533.12 ± 1.4
428.24 K, 5020 kPa	318.6 ± 0.92
428.24 K, 9997 kPa	422.29 ± 0.93
428.24 K, 14995 kPa	455.57 ± 1
428.24 K, 19996 kPa	477.35 ± 1.1
428.24 K, 24996 kPa	493.9 ± 1.2
428.24 K, 29993 kPa	507.4 ± 1.2
428.24 K, 34987 kPa	518.87 ± 1.3
428.24 K, 39990 kPa	528.9 ± 1.4
433.24 K, 5019 kPa	257.92 ± 0.99
433.24 K, 9998 kPa	412.15 ± 0.92
433.24 K, 14987 kPa	448.26 ± 1
433.24 K, 19989 kPa	471.28 ± 1.1
433.24 K, 24994 kPa	488.57 ± 1.2
433.24 K, 29992 kPa	502.55 ± 1.2
433.24 K, 34997 kPa	514.38 ± 1.3
433.24 K, 40003 kPa	524.73 ± 1.4
438.24 K, 5011 kPa	195.21 ± 0.84
438.24 K, 9986 kPa	401.49 ± 0.92
438.24 K, 14995 kPa	440.85 ± 0.99
438.24 K, 19991 kPa	465.16 ± 1.1
438.24 K, 24999 kPa	483.18 ± 1.2
438.24 K, 29997 kPa	497.7 ± 1.2
438.24 K, 35010 kPa	509.95 ± 1.3
438.24 K, 39994 kPa	520.5 ± 1.4
443.24 K, 5018 kPa	165.31 ± 0.7
443.24 K, 14986 kPa	433.23 ± 0.97
443.24 K, 20005 kPa	458.99 ± 1.1
443.24 K, 24988 kPa	477.7 ± 1.1
443.24 K, 30010 kPa	492.78 ± 1.2
443.24 K, 35012 kPa	505.33 ± 1.3
443.24 K, 39996 kPa	516.19 ± 1.4
443.25 K, 9990 kPa	390.35 ± 0.91
448.24 K, 5018 kPa	148 ± 0.66
448.24 K, 14981 kPa	425.58 ± 0.95
448.24 K, 19992 kPa	452.7 ± 1.1
448.24 K, 24997 kPa	472.33 ± 1.1
448.24 K, 29998 kPa	487.86 ± 1.2
448.24 K, 34998 kPa	500.83 ± 1.3
448.24 K, 39998 kPa	512 ± 1.4
448.25 K, 9991 kPa	378.84 ± 0.89
453.24 K, 5018 kPa	136.35 ± 0.64
453.24 K, 14996 kPa	418.01 ± 0.94
453.24 K, 19984 kPa	446.42 ± 1
453.24 K, 24987 kPa	466.88 ± 1.1
453.24 K, 29994 kPa	482.99 ± 1.2
453.24 K, 34990 kPa	496.33 ± 1.3
453.24 K, 40001 kPa	507.8 ± 1.4

Details	vapor or sublimation pressure [kPa]
395.35 K	2678.7 ± 8.9
403.65 K	3085.8 ± 10
409.68 K	3413.2 ± 11
415.36 K	3739.2 ± 12
